Source: ChEMBL document CHEMBL2176945, “Novel TEMPO-PEG-RGDs conjugates remediate tissue damage induced by acute limb ischemia/reperfusion” (2012)
Activity calls are given as the source filed them. No cut-off for these calls is given here. Residues, ends and D or L forms follow the SMILES beside them. *: point of attachment. X1 = CC1(C)CC(C(=O)*)CC(C)(C)N1[O]

Legend:
[1] = test system: Rattus norvegicus; assay: Antithrombotic activity in Wistar rat model assessed as reduction of wet thrombus weight at 5 umol/kg after 15 mins; format: functional
[2] = test system: Platelet; assay: Antiplatelet activity against ADP-induced platelet aggregation in rabbit plasma at 100 nM for 120 mins by aggregometeric analysis; format: functional; conditions: Oryctolagus cuniculus
[3] = test system: Platelet; assay: Antiplatelet activity against PAF-induced platelet aggregation in rabbit plasma at 100 nM for 120 mins by aggregometeric analysis; format: functional; conditions: Oryctolagus cuniculus
[4] = test system: Aorta; assay: Antioxidant activity in rat thoracic aortic strips assessed as free radical scavenging activity by measuring reversal of acetylcholine-induced relaxation; format: functional, tissue-based
[5] = test system: Rattus norvegicus; assay: Antiischemic activity against Wistar rat ischemic-reperfusion model assessed as wet/dry edema tissue ratio at 20 mg/kg, ip administered 15 minutes prior to induction of ischemia followed by administered 1 hr post reperfusion; format: functional
[6] = test system: Rattus norvegicus; assay: (§1) Antiischemic activity in Wistar rat skeleton muscle assessed as protection against ischemic-reperfusion-induced irregular distribution of oxidative metabolism enzyme at 20 mg/kg, ip administered 15 minutes prior to induction of ischemia followed by administered 1 hr post reperfusion by using NADH staining by light microscopy analysis; format: functional, organism-based; parameters: dose 20 mg/kg; conditions: Muscle tissue
[7] = test system: Rattus norvegicus; assay: Antiischemic activity against Wistar rat ischemic-reperfusion model assessed decrease in MDA level in plasma at 20 mg/kg, ip administered 15 minutes prior to induction of ischemia followed by administered 1 hr post reperfusion; format: functional, organism-based; parameters: dose 20 mg/kg
[8] = test system: Rattus norvegicus; assay: Antiischemic activity against Wistar rat ischemic-reperfusion model assessed decrease in SOD level in plasma at 20 mg/kg, ip administered 15 minutes prior to induction of ischemia followed by administered 1 hr post reperfusion; format: functional, organism-based; parameters: dose 20 mg/kg
[9] = test system: Rattus norvegicus; assay: Antiischemic activity against Wistar rat ischemic-reperfusion model assessed decrease in lipid peroxidation at 20 mg/kg, ip administered 15 minutes prior to induction of ischemia followed by administered 1 hr post reperfusion; format: functional, organism-based; parameters: dose 20 mg/kg
[10] = test system: Rattus norvegicus; assay: as §1, with “necrotic and swollen cells” for “irregular distribution of oxidative metabolism enzyme”, “Gomori trichrome” for “NADH”; format: functional, organism-based; parameters: dose 20 mg/kg; conditions: Muscle tissue
[11] = test system: Rattus norvegicus; assay: as §1, with “membrane ruptures with dissolution” for “irregular distribution”, “myofibrils” for “oxidative metabolism enzyme”, “Gomori trichrome” for “NADH”; format: functional, organism-based; parameters: dose 20 mg/kg; conditions: Muscle tissue
[12] = test system: Rattus norvegicus; assay: as §1, with “interstitial edema” for “irregular distribution of oxidative metabolism enzyme”, “Gomori trichrome” for “NADH”; format: functional, organism-based; parameters: dose 20 mg/kg; conditions: Muscle tissue
[13] = test system: Rattus norvegicus; assay: as §1, with “cell necrosis” for “irregular distribution of oxidative metabolism enzyme”, “hematoxylin-eosin” for “NADH”; format: functional, organism-based; parameters: dose 20 mg/kg; conditions: Muscle tissue
[14] = test system: Rattus norvegicus; assay: as §1, with “muscle edema” for “irregular distribution of oxidative metabolism enzyme”, “hematoxylin-eosin” for “NADH”; format: functional, organism-based; parameters: dose 20 mg/kg; conditions: Muscle tissue
[15] = test system: Rattus norvegicus; assay: as §1, with “neutrophil accumulation” for “irregular distribution of oxidative metabolism enzyme”, “hematoxylin-eosin” for “NADH”; format: functional, organism-based; parameters: dose 20 mg/kg; conditions: Muscle tissue
[16] = test system: Rattus norvegicus; assay: as §1, with “ragged red fibrils formation” for “irregular distribution of oxidative metabolism enzyme”, “using modified” for “using”, “stain” for “staining”, “Light” for “light”; format: functional, organism-based; parameters: dose 20 mg/kg; conditions: Muscle tissue
[17] = test system: Rattus norvegicus; assay: (§2) Antiischemic activity in Wistar rat myocardia assessed as protection against ischemic-reperfusion-induced edema between wavy muscle fibre and surrounding blood vessels at 20 mg/kg, ip administered 15 minutes prior to induction of ischemia followed by administered 1 hr post reperfusion by using hematoxylin-eosin stain by light microscopy analysis; format: functional, organism-based; parameters: dose 20 mg/kg
[18] = test system: Rattus norvegicus; assay: as §2, with “pyknotic nuclei” for “edema between wavy muscle fibre and surrounding blood vessels”; format: functional, organism-based; parameters: dose 20 mg/kg
[19] = test system: Rattus norvegicus; assay: as §2, with “contraction band” for “edema between wavy muscle fibre and surrounding blood vessels”; format: functional, organism-based; parameters: dose 20 mg/kg
[20] = test system: Rattus norvegicus; assay: as §2, with “relaxed collagen” for “edema between wavy muscle”, “sourrounding indivisual myocardial tract” for “and surrounding blood vessels”, “modified gomori trichome” for “hematoxylin-eosin”; format: functional, organism-based; parameters: dose 20 mg/kg
[21] = test system: Rattus norvegicus; assay: (§3) Antiischemic activity in Wistar rat myocardia assessed as protection against ischemic-reperfusion-induced tightly woven network of collagen and mild edema between fibre at 20 mg/kg, ip administered 15 minutes prior to induction of ischemia followed by administered 1 hr post reperfusion by using modified NADH stain by light microscopy analysis; format: functional, organism-based; parameters: dose 20 mg/kg
[22] = test system: Rattus norvegicus; assay: as §3, with “gomori trichome staining” for “NADH stain”; format: functional, organism-based; parameters: dose 20 mg/kg
[23] = test system: Rattus norvegicus; assay: as §3, with “edema” for “edema between fibre”, “hematoxylin-eosin” for “modified NADH”, “Light” for “light”; format: functional, organism-based; parameters: dose 20 mg/kg
[24] = test system: Rattus norvegicus; assay: Antithrombotic activity in Wistar rat model assessed as reduction of dry thrombus weight at 5 umol/kg after 15 mins; format: functional, organism-based

CC1(C)CC(C(=O)NCCOCCOCCOCCOCCOCCOCCOCCNC(=O)COCC(=O)N[C@@H](CCCNC(=N)N)C(=O)NCC(=O)N[C@@H](CC(=O)O)C(=O)N[C@@H](CO)C(=O)O)CC(C)(C)N1[O]
Wet thrombus weight [1]: 23.6 mg | Activity [2]: Active | Activity [3]: Active | Activity [4]: Active

CC1(C)CC(O)CC(C)(C)N1[O] [TEMPOL]
Activity [4]: Active | Ratio ([5]; route intraperitoneal): 4.49

CC1(C)CC(C(=O)NCCOCCOCCOCCOCCOCCOCCOCCNC(=O)COCC(=O)N[C@@H](CCCNC(=N)N)C(=O)NCC(=O)N[C@@H](CC(=O)O)C(=O)N[C@@H](Cc2ccccc2)C(=O)O)CC(C)(C)N1[O]
Activity [6]: Active | Wet thrombus weight [1]: 20.7 mg | Activity [2]: Active | Activity [3]: Active | Activity [4]: Active | Ratio [5]: 3.45 | Activity [7]: Active | Activity [8]: Active | Activity [9]: Active | Activity [10]: Active | Activity [11]: Active | Activity [12]: Active | Activity [13]: Active | Activity [14]: Active | Activity [15]: Active | Activity [16]: Active | Activity [17]: Active | Activity [18]: Active | Activity [19]: Active | Activity [20]: Active | Activity [21]: Active | Activity [22]: Active | Activity [23]: Active

CC1(C)CC(C(=O)N[C@@H](CCCNC(=N)N)C(=O)NCC(=O)N[C@@H](CC(=O)O)C(=O)N[C@@H](Cc2ccccc2)C(=O)O)CC(C)(C)N1[O] (X1-RGDF-OH)
Activity [24]: 22.3 mg | Activity [2]: Active | Activity [3]: Active | Activity [4]: Active

CC(C)[C@H](NC(=O)[C@H](CC(=O)O)NC(=O)CNC(=O)[C@H](CCCNC(=N)N)NC(=O)C1CC(C)(C)N([O])C(C)(C)C1)C(=O)O (X1-RGDV-OH)
Activity [24]: 25.1 mg | Activity [2]: Active | Activity [3]: Active | Activity [4]: Active

CC(=O)Oc1ccccc1C(=O)O [ASPIRIN]
Activity [1]: 27.6 mg

CC(C)[C@H](NC(=O)[C@H](CC(=O)O)NC(=O)CNC(=O)[C@H](CCCNC(=N)N)NC(=O)COCC(=O)NCCOCCOCCOCCOCCOCCOCCOCCNC(=O)C1CC(C)(C)N([O])C(C)(C)C1)C(=O)O
Wet thrombus weight [1]: 24.7 mg | Activity [2]: Active | Activity [3]: Active | Activity [4]: Active

CC1(C)CC(C(=O)N[C@@H](CCCNC(=N)N)C(=O)NCC(=O)N[C@@H](CC(=O)O)C(=O)N[C@@H](CO)C(=O)O)CC(C)(C)N1[O] (X1-RGDS-OH)
Activity [24]: 25.9 mg | Activity [2]: Active | Activity [3]: Active | Activity [4]: Active
